Data as given in patent publication US20220220128A1, “HETEROCYCLIC COMPOUNDS AS KINASE INHIBITORS, COMPOSITIONS COMPRISING THE HETEROCYCLIC COMPOUND, AND METHODS OF USE THEREOF” (JS Innopharm (Shanghai) Ltd, priority 2019, published 2022).
Read-outs that look alike come from different tables or passages of the source.

What was measured:
[1] = target: T1, human KDR kinase (Homo sapiens, UniProt P35968); assay: KDR Kinase Assay (LanthaScreen TR-FRET enzymatic assay); format: biochemical; conditions: 1.2 nM KDR, 92 μM ATP
T1 construct: purchased Carna 08-191
T1 sequence (P35968 20-1356): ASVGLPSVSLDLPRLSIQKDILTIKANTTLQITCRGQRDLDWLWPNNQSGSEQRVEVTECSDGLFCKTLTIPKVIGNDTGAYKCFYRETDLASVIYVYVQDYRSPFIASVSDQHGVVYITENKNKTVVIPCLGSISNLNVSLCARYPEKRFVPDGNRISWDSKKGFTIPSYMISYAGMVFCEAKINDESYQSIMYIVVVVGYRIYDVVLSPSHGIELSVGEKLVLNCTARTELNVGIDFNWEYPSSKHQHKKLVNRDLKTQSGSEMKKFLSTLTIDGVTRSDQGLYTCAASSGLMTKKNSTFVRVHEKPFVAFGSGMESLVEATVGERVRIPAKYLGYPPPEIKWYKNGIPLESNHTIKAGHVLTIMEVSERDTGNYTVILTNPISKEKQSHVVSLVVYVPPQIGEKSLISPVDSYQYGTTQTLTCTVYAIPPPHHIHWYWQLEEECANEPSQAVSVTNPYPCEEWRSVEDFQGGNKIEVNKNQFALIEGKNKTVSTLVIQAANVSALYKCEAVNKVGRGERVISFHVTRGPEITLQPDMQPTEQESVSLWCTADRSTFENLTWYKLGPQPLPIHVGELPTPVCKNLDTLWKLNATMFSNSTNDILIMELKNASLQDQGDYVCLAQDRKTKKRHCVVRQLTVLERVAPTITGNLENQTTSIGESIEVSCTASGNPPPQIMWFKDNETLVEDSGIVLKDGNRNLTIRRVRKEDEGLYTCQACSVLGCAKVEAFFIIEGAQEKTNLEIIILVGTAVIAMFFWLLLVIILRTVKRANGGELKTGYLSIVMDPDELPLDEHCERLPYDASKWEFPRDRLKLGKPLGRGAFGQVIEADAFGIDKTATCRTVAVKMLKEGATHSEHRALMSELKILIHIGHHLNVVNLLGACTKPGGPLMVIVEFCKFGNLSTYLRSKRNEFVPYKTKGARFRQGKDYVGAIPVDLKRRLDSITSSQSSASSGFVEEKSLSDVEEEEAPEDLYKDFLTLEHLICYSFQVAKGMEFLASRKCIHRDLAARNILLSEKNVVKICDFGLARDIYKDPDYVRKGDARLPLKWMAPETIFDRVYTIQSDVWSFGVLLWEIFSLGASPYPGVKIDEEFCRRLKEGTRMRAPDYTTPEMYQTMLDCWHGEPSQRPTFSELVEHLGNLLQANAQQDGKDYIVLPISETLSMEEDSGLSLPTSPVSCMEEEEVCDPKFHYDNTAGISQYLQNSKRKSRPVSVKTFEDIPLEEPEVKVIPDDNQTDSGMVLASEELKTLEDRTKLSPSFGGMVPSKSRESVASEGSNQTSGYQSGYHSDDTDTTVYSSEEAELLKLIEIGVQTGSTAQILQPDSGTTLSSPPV
Experimental: Compounds were tested in a LanthaScreen™ time-resolved fluorescence energy transfer (TR-FRET) enzymatic assay from Invitrogen. The assay used human KDR kinase (Carna 08-191). Test compounds were prepared and diluted in DMSO in 3-fold serial dilutions to 50× of the final testing concentrations. The compounds were then further diluted to 5× by the kinase reaction buffer (50 mM HEPES pH 7.5, 0.0015% Brij-35). The enzymatic reaction for compound testing was performed in a white 384-well polypropylene plate (Corning 3573) with a total reaction volume of 25 μl containing 1.2 nM KDR, 3 μM peptide substrate FAM-P22 (GL Biochem 112393), and 92 μM ATP (Sigma A7699-1G). The assay started with loading RET diluted in kinase reaction buffer to wells, followed by addition of equal volume of 5× compounds for 15-min incubation at the room temperature for pre-treatment. The enzymatic reaction was initiated by addition of mixture of the substrate and ATP prepared in kinase reaction buffer. After incubation at 28° C. for one hour, 25 μl of stopper buffer (a mixture of 100 mM HEPES pH 7.5 buffer, 0.015% Brij-35, 50 mM EDTA and 0.2% of coating reagent 3 (Cliper Lifesciences)) and produce TR-FRET signals. After 30 minutes of incubation at room temperature, the plate was read in a Caliper with the following settings: Excitation 340 nm (30)/Emission1 495 nm (10)/Emission2 520 nm (25). The TR-FRET values were dimensionless numbers that were calculated as the ratio of the acceptor ([…]) signal to the donor (Terbium) signal. Percent of control was calculated as the percentage of compound-treated vs 1% DMSO vehicle-treated. The dose-response curves were generated and the IC50s were calculated by nonlinear sigmoid curve fitting using XLFit.

[2] = target: T2, human RET kinase (Homo sapiens, UniProt P07949); assay: RET Kinase Assay (LanthaScreen TR-FRET enzymatic assay); format: biochemical; conditions: 7 nM RET, 23 μM ATP
T2 construct: purchased Carna 08-159
T2 sequence (P07949 29-1114): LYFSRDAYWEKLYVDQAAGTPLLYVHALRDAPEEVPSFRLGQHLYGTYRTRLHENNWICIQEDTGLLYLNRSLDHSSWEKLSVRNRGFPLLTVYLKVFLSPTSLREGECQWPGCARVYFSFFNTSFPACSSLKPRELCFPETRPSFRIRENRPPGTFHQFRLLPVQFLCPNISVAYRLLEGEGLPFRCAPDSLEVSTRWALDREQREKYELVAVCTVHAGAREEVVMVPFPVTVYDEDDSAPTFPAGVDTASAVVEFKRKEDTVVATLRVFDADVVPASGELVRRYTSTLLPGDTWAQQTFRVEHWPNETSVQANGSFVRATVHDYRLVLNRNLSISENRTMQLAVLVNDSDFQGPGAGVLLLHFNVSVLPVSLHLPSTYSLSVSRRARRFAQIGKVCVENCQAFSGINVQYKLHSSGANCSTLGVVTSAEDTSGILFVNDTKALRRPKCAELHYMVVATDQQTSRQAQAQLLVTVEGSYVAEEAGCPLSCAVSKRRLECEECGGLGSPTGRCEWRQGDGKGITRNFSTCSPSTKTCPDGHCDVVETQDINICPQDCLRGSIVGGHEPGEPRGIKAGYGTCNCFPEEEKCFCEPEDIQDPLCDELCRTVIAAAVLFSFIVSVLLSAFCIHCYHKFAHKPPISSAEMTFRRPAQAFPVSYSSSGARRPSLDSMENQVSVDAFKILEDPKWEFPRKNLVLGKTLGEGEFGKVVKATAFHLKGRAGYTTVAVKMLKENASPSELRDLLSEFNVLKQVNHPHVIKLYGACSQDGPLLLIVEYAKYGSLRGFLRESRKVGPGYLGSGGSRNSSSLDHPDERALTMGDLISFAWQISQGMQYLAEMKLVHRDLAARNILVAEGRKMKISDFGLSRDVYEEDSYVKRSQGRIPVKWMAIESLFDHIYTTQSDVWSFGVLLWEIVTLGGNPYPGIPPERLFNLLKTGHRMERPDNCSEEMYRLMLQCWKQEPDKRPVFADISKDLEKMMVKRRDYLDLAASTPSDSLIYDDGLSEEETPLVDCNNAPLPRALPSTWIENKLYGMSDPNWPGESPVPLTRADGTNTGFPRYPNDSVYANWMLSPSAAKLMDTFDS
Experimental: Compounds were tested in a LanthaScreen™ time-resolved fluorescence energy transfer (TR-FRET) enzymatic assay from Invitrogen. The assay used human RET kinase (Carna 08-159). Test compounds were prepared and diluted in DMSO in 3-fold serial dilutions to 50× of the final testing concentrations. The compounds were then further diluted to 5× by the kinase reaction buffer (50 mM HEPES pH 7.5, 0.0015% Brij-35). The enzymatic reaction for compound testing was performed in a white 384-well polypropylene plate (Corning 3573) with a total reaction volume of 25 μl containing 7 nM RET, 3 μM peptide substrate FAM-P2 (GL Biochem 112394), and 23 μM ATP (Sigma A7699-1G). The assay started with loading RET diluted in kinase reaction buffer to wells, followed by addition of equal volume of 5× compounds for 15-min incubation at the room temperature for pre-treatment. The enzymatic reaction was initiated by addition of mixture of the substrate and ATP prepared in kinase reaction buffer. After incubation at 28° C. for one hour, 25 μl of stopper buffer (a mixture of 100 mM HEPES pH 7.5 buffer, 0.015% Brij-35, 50 mM EDTA and 0.2% of coating reagent 3 (Cliper Lifesciences)) and produce TR-FRET signals. After 30 minutes of incubation at room temperature, the plate was read in a Caliper with the following settings: Excitation 340 nm (30)/Emission1 495 nm (10)/Emission2 520 nm (25). The TR-FRET values were dimensionless numbers that were calculated as the ratio of the acceptor ([…]) signal to the donor (Terbium) signal. Percent of control was calculated as the percentage of compound-treated vs 1% DMSO vehicle-treated. The dose-response curves were generated and the IC50s were calculated by nonlinear sigmoid curve fitting using XLFit.

[3] = system: TT cells; assay: TT Cell Proliferation Assay (WST-8, 8 days); format: cell-based; conditions: growth inhibition in TT cells, read-out: TT Cellular Activity
Experimental: Compounds disclosed herein were tested for the inhibition of RET by a cancer cell proliferation assay commonly known as MTT assay. In this assay, a complete media was prepared by adding 10% fetal bovine serum to RPMI-1640 medium (Life technology). TT cells were added to each of 88 wells of a 96 well plate at a seeding density of 6,000 cells/well/90 μL. The cells were allowed to attach to the plate by incubating at 37° C. for 24 hours. The compound was dissolved in DMSO (SIGMA). A solution of test compound was prepared in complete media by serial dilution to obtain the following concentrations: 50 μM, 15 μM, 5 μM, 1.5 μM, 0.5 μM, 0.15 μM, 0.05 μM, 0.015 μM and 0.005 μM. The test compound solution (10 μL) was added to each of 80 cell-containing wells. The final concentrations of the compound were following: 5 μM, 1.5 μM, 0.5 μM, 0.15 μM, 0.05 μM, 0.015 μM, 0.005 μM, 0.0015 μM and 0.0005 μM. The final concentration of DMSO is 0.5%. To the 8 remaining cell-containing wells, only complete media (containing 0.5% DMSO) was added to form a control group in order to measure maximal proliferation. To the remaining 8 empty wells, complete media was added to for a vehicle control group in order to measure background. The plates were incubated at 37° C. for 8 days. 10 μL WST-8 solution (DOJINDO, Cell Counting KIT-8) was added to each well. The plates were further incubated at 37° C. for 5 hours, and then read for the absorbance using a microplate reader at 450 nm. The IC50 was calculated using GraphPad Prism.

Row | Compound | IC50 [1] | IC50 [2] | IC50 ([3]; Homo sapiens, TT, 192 h) | IC50 ([3]; Homo sapiens, 192 h) | IC50 [3]
1 | Cn1cc(-c2cc(-c3ccc(N4C[C@@H]5[C@H](C4)[C@H]5NC(=O)[C@H](O)c4ccccc4)nc3)c3c(C#N)cnn3c2)cn1 [Example 18, (R)-N-((1R,5S,6s)-3-(5-(3-cyano-6-(1-methyl-1H-pyrazol-4-yl)pyrazolo[1,5-a]pyridin-4-yl)pyridin-2-yl)-3-azabicyclo[3.1.0]hexan-6-yl)-2-hydroxy-2-phenylacetamide] | 10 to 50 nM | ≤ 10 nM | – | 10 to 50 nM | –
2 | COc1ccc(CN[C@H]2[C@@H]3CN(c4ccc(-c5cc(-c6cnn(C)c6)cn6ncc(C#N)c56)cn4)C[C@@H]32)cn1 [Example 33, 4-(6-((1R,5S,6s)-6-(((6-methoxypyridin-3-yl)methyl)amino)-3-azabicyclo[3.1.0]hexan-3-yl)pyridin-3-yl)-6-(1-methyl-1H-pyrazol-4-yl)pyrazolo[1,5-a]pyridine-3-carbonitrile] | 10 to 50 nM | ≤ 10 nM | 10 to 50 nM | – | –
3 | Cn1cc(-c2cc(-c3ccc(N4C[C@@H]5[C@H](CNC(=O)OC(C)(C)C)[C@@H]5C4)nc3)c3c(C#N)cnn3c2)cn1 [Example 72, tert-butyl (((1R,5S,6r)-3-(5-(3-cyano-6-(1-methyl-1H-pyrazol-4-yl)pyrazolo[1,5-a]pyridin-4-yl)pyridin-2-yl)-3-azabicyclo[3.1.0]hexan-6-yl)methyl)carbamate] | ≤ 10 nM | ≤ 10 nM | ≤ 10 nM | – | –
4 | Cn1ccc(-c2cc(-c3ccc(N4C[C@@H]5CN(S(=O)(=O)c6c(F)cccc6Cl)C[C@@H]5C4)nc3)c3c(C#N)cnn3c2)n1 [Example 179, 4-(6-((3aR,6aS)-5-((2-chloro-6-fluorophenyl)sulfonyl)hexahydropyrrolo[3,4-c]pyrrol-2(1H)-yl)pyridin-3-yl)-6-(1-methyl-1H-pyrazol-3-yl)pyrazolo[1,5-a]pyridine-3-carbonitrile] | 10 to 50 nM | 10 to 50 nM | ≤ 10 nM | – | –
5 | Cn1cc(-c2cc(-c3ccc(N4C[C@@H]5[C@H](CNC(=O)C(O)c6ccccc6)[C@@H]5C4)nc3)c3c(C#N)cnn3c2)cn1 (stereo partly drawn) [Example 79, N-(((1R,5S,6r)-3-(5-(3-cyano-6-(1-methyl-1H-pyrazol-4-yl)pyrazolo[1,5-a]pyridin-4-yl)pyridin-2-yl)-3-azabicyclo[3.1.0]hexan-6-yl)methyl)-2-hydroxy-2-phenylacetamide] | ≤ 10 nM | ≤ 10 nM | ≤ 10 nM | – | –
6 | CC(C)C(O)C(=O)N[C@@H]1[C@@H]2CN(c3ccc(-c4cc(-c5cnn(C)c5)cn5ncc(C#N)c45)cc3)C[C@@H]21 (stereo partly drawn) [Example 17, N-((1R,5S,6r)-3-(4-(3-cyano-6-(1-methyl-1H-pyrazol-4-yl)pyrazolo[1,5-a]pyridin-4-yl)phenyl)-3-azabicyclo[3.1.0]hexan-6-yl)-2-hydroxy-3-methylbutanamide] | 10 to 50 nM | ≤ 10 nM | 10 to 50 nM | – | –

Further lines, with some results ahead:

Row | IC50 [1] | IC50 [2] | Compound | IC50 ([3]; Homo sapiens, TT, 192 h) | IC50 ([3]; Homo sapiens, 192 h) | IC50 [3]
7 | > 100 nM | 10 to 50 nM | CC(C)(O)COc1cc(-c2ccc(N3C[C@@H]4[C@H](C3)[C@H]4NC(=O)[C@H](O)c3ccccc3)nc2)c2c(C#N)cnn2c1 [Example 40, (R)-N-((1R,5S,6s)-3-(5-(3-cyano-6-(2-hydroxy-2-methylpropoxy)pyrazolo[1,5-a]pyridin-4-yl)pyridin-2-yl)-3-azabicyclo[3.1.0]hexan-6-yl)-2-hydroxy-2-phenylacetamide] | 50 to 100 nM | – | –
8 | 10 to 50 nM | ≤ 10 nM | Cn1cc(-c2cc(-c3ccc(N4C[C@@H]5[C@@H](CNC(=O)c6ncccc6C(F)(F)F)[C@@H]5C4)nc3)c3c(C#N)cnn3c2)cn1 [Example 86, N-(((1R,5S,6s)-3-(5-(3-cyano-6-(1-methyl-1H-pyrazol-4-yl)pyrazolo[1,5-a]pyridin-4-yl)pyridin-2-yl)-3-azabicyclo[3.1.0]hexan-6-yl)methyl)-3-(trifluoromethyl)picolinamide] | – | – | ≤ 10 nM
9 | 10 to 50 nM | ≤ 10 nM | Cn1cc(-c2cc(-c3ccc(N4C[C@@H]5[C@H](C4)[C@H]5NC(=O)c4ncc(F)cc4Cl)nc3)c3c(C#N)cnn3c2)cn1 [Example 22, 3-chloro-N-((1R,5S,6s)-3-(5-(3-cyano-6-(1-methyl-1H-pyrazol-4-yl)pyrazolo[1,5-a]pyridin-4-yl)pyridin-2-yl)-3-azabicyclo[3.1.0]hexan-6-yl)-5-fluoropicolinamide] | 50 to 100 nM | – | –
10 | > 100 nM | 50 to 100 nM | CC(C)(O)COc1cc(-c2ccc(N3C[C@@H]4[C@H](C3)[C@@H]4NC(=O)c3ncccc3Cl)nc2)c2c(C#N)cnn2c1 [Example 44, 3-chloro-N-((1R,5S,6r)-3-(5-(3-cyano-6-(2-hydroxy-2-methylpropoxy)pyrazolo[1,5-a]pyridin-4-yl)pyridin-2-yl)-3-azabicyclo[3.1.0]hexan-6-yl)picolinamide] | > 100 nM | – | –
11 | > 100 nM | 50 to 100 nM | COc1cc(-c2ccc(N3C[C@@H]4[C@H](C3)[C@H]4NC(=O)c3ncccc3Cl)nc2)c2c(C#N)cnn2c1 [Example 39, 3-chloro-N-((1R,5S,6s)-3-(5-(3-cyano-6-methoxypyrazolo[1,5-a]pyridin-4-yl)pyridin-2-yl)-3-azabicyclo[3.1.0]hexan-6-yl)picolinamide] | > 100 nM | – | –
12 | > 100 nM | 10 to 50 nM | CC(C)(O)COc1cc(-c2ccc(N3C[C@@H]4[C@@H](CNS(=O)(=O)c5c(F)cccc5Cl)[C@@H]4C3)nc2)c2c(C#N)cnn2c1 [Example 184, 2-chloro-N-(((1R,5S,6r)-3-(5-(3-cyano-6-(2-hydroxy-2-methylpropoxy)pyrazolo[1,5-a]pyridin-4-yl)pyridin-2-yl)-3-azabicyclo[3.1.0]hexan-6-yl)methyl)-6-fluorobenzenesulfonamide] | 50 to 100 nM | – | –
13 | 10 to 50 nM | ≤ 10 nM | Cn1cc(-c2cc(-c3ccc(N4C[C@@H]5[C@@H](CNC(=O)c6c(F)cccc6Cl)[C@@H]5C4)nc3)c3c(C#N)cnn3c2)cn1 [Example 83, 2-chloro-N-(((1R,5S,6s)-3-(5-(3-cyano-6-(1-methyl-1H-pyrazol-4-yl)pyrazolo[1,5-a]pyridin-4-yl)pyridin-2-yl)-3-azabicyclo[3.1.0]hexan-6-yl)methyl)-6-fluorobenzamide] | ≤ 10 nM | – | –
